Results taken from publication PMC9465256, “Discovering monoacylglycerol lipase inhibitors by a combination of fluorogenic substrate assay and activity-based protein profiling” (Frontiers in Pharmacology, 2022).

Experiments:
OVCAR-3 cells = test: Cell viability assay (CCK-8), OVCAR-3; assay type: cell-based; conditions: OVCAR-3, 48 h; for IC50: Homo sapiens, read-out: Antiproliferation activity (pIC50 ± SEM) OVCAR-3 (converted)
Protocol: (§1) Various cancer cell lines, including human colon cancer cell line HT-29, ovarian cell line OVCAR-3, melanoma cell line B16-F10, skin squamous cancer cells A431, cervical cancer cells Hela, lung cancer cell lines A549, H1975, and HCC827, were purchased from American type culture collection (ATCC). A431, H1975, B16-F10, OVCAR-3, HT-29, HCC827, Hela, and A549 cells were cultured in Dulbecco’s modified Eagle medium (DMEM, Gibco) containing 10% fetal bovine serum (FBS, Gibco), penicillin (100 U/ml) and streptomycin (100 μg/ml). All cell lines were maintained in a humidified 37°C incubator with 5% CO2. The medium was refreshed every 2–3 days and the cells were passaged at ∼90% confluence by adding the fresh medium, followed by vigorously pipetting the resuspend cells. Of note, the cells were only washed with PBS when a significant number of dead cells were observed.
(§2) The antiproliferation activity of the compounds against the cancer cell lines was evaluated using Cell Counting Kit-8. Briefly, cells (∼1,000 per well) in 100 µl of culture medium were plated in a 96-well plate for 24 h and 100 µl of medium with different concentrations of the tested compounds was added to each well for 48 h. Then 10 μl of CCK8 solution (#CK04, Dojindo) was added and incubated at 37°C for 2 h. The absorbance of each well was measured with a plate reader (BioTeck) at 450 nm. Cell viability was calculated as follows: cell viability (%) = [(As-Ab)/(Ac-Ab)] × 100. Among them, As represents the absorbance of experimental wells, Ab represents the absorbance of blank wells and Ac represents the absorbance of control wells. The experiments were repeated at least three times and IC50 values were determined by plotting a log(inhibitor) v. s normalized response (Variable slope) dose–response curve generated using GraphPad Prism software.

A431 cells = test: Cell viability assay (CCK-8), A431; assay type: cell-based; conditions: for IC50: Homo sapiens, A-431, read-out: Antiproliferation activity (pIC50 ± SEM) A431 (converted)
Protocol: as §1, §2

human ABHD6 = molecular target: T1, human ABHD6 (Homo sapiens, UniProt Q9BV23); test: ABHD6 activity assay (AA-HNA fluorogenic substrate); assay type: biochemical
T1 construct: expressed in transfected cells; host or cells: HEK293T (transient transfection; membrane fraction)
T1 sequence (Q9BV23 1-337): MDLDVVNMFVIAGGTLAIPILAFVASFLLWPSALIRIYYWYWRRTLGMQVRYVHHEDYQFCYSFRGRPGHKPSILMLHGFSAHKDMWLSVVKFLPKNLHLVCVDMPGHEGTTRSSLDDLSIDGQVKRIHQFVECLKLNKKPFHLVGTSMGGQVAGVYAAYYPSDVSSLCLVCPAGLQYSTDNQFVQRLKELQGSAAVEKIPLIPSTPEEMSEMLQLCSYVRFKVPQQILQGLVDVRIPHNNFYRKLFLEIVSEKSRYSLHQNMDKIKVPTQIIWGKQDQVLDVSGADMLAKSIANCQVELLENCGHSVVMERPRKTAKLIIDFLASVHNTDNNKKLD
Outline: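 Membranes from HEK293T cells transiently overexpressing human ABHD6 (50 μg/ml final) were preincubated 30 min with inhibitor in 40 mM HEPES pH 7.5, 0.1 mg/ml BSA, 5% DMSO. Hydrolysis of 200 µM AA-HNA was followed by fluorescence for 30 min, activity taken as the 5–15 min slope.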

Hela cells = test: Cell viability assay (CCK-8), Hela; assay type: cell-based; conditions: 48 h; for IC50: Homo sapiens, read-out: Antiproliferation activity (pIC50 ± SEM) Hela (converted)
Protocol: as §1, §2

[1] = 100 µM, AA-HNA substrate assay, Supplementary Table 2, read-out: ABHD6 Inhibition (%)

Row | SMILES | Antiproliferation activity (pIC50 ± SEM) OVCAR-3 (OVCAR-3 cells) | Antiproliferation activity (pIC50 ± SEM) A431 (A431 cells; A431, 48 h, CCK-8) | activity (human ABHD6; [1]) [%] | Antiproliferation activity (pIC50 ± SEM) Hela (Hela cells) | IC50 (OVCAR-3 cells) [µM] | inhibition of cell viability of A431 (A431 cells; 20 µM, 48 h) [%] | IC50 (A431 cells; A431, 48 h, CCK-8) [µM] | activity at 100 µM (human ABHD6; [1]) [%] | IC50 (Hela cells) [µM] | inhibition at 100 µM (human ABHD6; recombinant human ABHD6, 100 µM compound) [%] | ABHD6 inhibition (%) (human ABHD6; recombinant human ABHD6, 100 µM compound, 100 µM)
1 | Cl.N=c1ccn2c(n1)O[C@H]1[C@H](O)[C@@H](CO)O[C@H]12 [compound 1, Cyclocytidine HCl] | 5.7 ± 0.3 | <5 | 89.8 | 5.0 ± 0.2 | – | – | – | – | – | – | –
2 | COc1ccc(C(C)=O)c(O)c1 [compound 64, Paeonol] | – | – | – | – | > 10 | 78 | 6.31 | 96.2 | > 10 | – | –
3 | C[C@H]1COC2=C1C(=O)C(=O)c1c2ccc2c1CCCC2(C)C [compound 23, Cryptotanshinone] | – | – | – | – | 5.01 | – | 7.94 | 62.5 | 7.94 | < 50 | 37
4 | COc1ccc2cc3[n+](cc2c1OC)CCc1cc2c(cc1-3)OCO2 [compound 17, Berberine chloride] | – | – | – | – | > 10 | – | > 10 | 112 | > 10 | – | –
5 | O=c1cc(-c2ccc(O)cc2)oc2cc(O)cc(O)c12 [compound 9, Apigenin] | – | – | – | – | > 10 | – | > 10 | 88.9 | > 10 | – | –
